In ChEMBL document CHEMBL6109146, “Discovery of New Pyrazolone Carbothioamide Derivatives as Potent Antifungal Agents for the Treatment of Candidiasis and Cryptococcosis” (J Med Chem, 2025):
Activity calls are given as the source filed them. No cut-off for these calls is given here.

Columns and labels:
[Candida] auris [1] = Antifungal activity against Candida auris 0030 assessed as inhibition of fungal growth incubated for 48 to 72 hrs by microplate reader analysis; type: functional, organism-based; conditions: Candidozyma auris, time 48-72 hrs
Nakaseomyces glabratus [2] = assay: Antifungal activity against Candida glabrata 0161 assessed as inhibition of fungal growth incubated for 48 to 72 hrs by microplate reader analysis; type: functional; conditions: time 48-72 hrs
Nakaseomyces glabratus [3] = assay: Antifungal activity against Candida glabrata 9256 assessed as inhibition of fungal growth incubated for 48 to 72 hrs by microplate reader analysis; type: functional; conditions: time 48-72 hrs
Candida albicans [4] = assay: Antifungal activity against Candida albicans 103 assessed as inhibition of fungal growth incubated for 48 to 72 hrs by microplate reader analysis; type: functional, organism-based; conditions: time 48-72 hrs
Cryptococcus neoformans [5] = assay: Antifungal activity against Cryptococcus neoformans 011409 assessed as inhibition of fungal growth incubated for 48 to 72 hrs by microplate reader analysis; type: functional; conditions: time 48-72 hrs
Candida albicans [6] = assay: Antifungal activity against Candida albicans 9296 assessed as inhibition of fungal growth incubated for 48 to 72 hrs by microplate reader analysis; type: functional, organism-based; conditions: time 48-72 hrs
[Candida] auris [7] = Antifungal activity against Candida auris 0029 assessed as inhibition of fungal growth incubated for 48 to 72 hrs by microplate reader analysis; type: functional, organism-based; conditions: Candidozyma auris, time 48-72 hrs
Cryptococcus neoformans [8] = assay: Antifungal activity against Cryptococcus neoformans H99 assessed as inhibition of fungal growth incubated for 48 to 72 hrs by microplate reader analysis; type: functional; conditions: time 48-72 hrs
Cryptococcus gattii = assay: Antifungal activity against Cryptococcus gattii 01063P assessed as inhibition of fungal growth incubated for 48 to 72 hrs by microplate reader analysis; type: functional; conditions: time 48-72 hrs
Nakaseomyces glabratus [9] = assay: Antifungal activity against Candida glabrata 8535 assessed as inhibition of fungal growth incubated for 48 to 72 hrs by microplate reader analysis; type: functional; conditions: time 48-72 hrs
Cryptococcus neoformans [10] = assay: Antifungal activity against Cryptococcus neoformans HN-68 assessed as inhibition of fungal growth incubated for 48 to 72 hrs by microplate reader analysis; type: functional; conditions: time 48-72 hrs
[Candida] auris [11] = Antifungal activity against Candida auris 15448 assessed as inhibition of fungal growth incubated for 48 to 72 hrs by microplate reader analysis; type: functional, organism-based; conditions: Candidozyma auris, time 48-72 hrs
Candida albicans [12] = assay: Antifungal activity against Candida albicans SC5314 assessed as inhibition of fungal growth incubated for 48 to 72 hrs by microplate reader analysis; type: functional, organism-based; conditions: time 48-72 hrs

| SMILES | Activity ([Candida] auris [1]) | Activity (Nakaseomyces glabratus [2]) | Activity (Nakaseomyces glabratus [3]) | Activity (Candida albicans [4]) | Activity (Cryptococcus neoformans [5]) | Activity (Candida albicans [6]) | Activity ([Candida] auris [7]) | Activity (Cryptococcus neoformans [8]) | Activity (Cryptococcus gattii) | Activity (Nakaseomyces glabratus [9]) | Activity (Cryptococcus neoformans [10]) | Activity ([Candida] auris [11]) | Activity (Candida albicans [12]) |
| --- | --- | --- | --- | --- | --- | --- | --- | --- | --- | --- | --- | --- | --- |
| Nc1ccn(C(=S)Nc2ccc(C3CCCCC3)cc2)n1 | inactive | inactive | inactive | inactive | inactive | inactive | inactive | inactive | inactive | inactive | inactive | inactive | inactive |
| CC(=O)c1ccc(NC(=O)n2[nH]c(N)cc2=O)cc1 | inactive | inactive | inactive | inactive | inactive | inactive | inactive | inactive | inactive | inactive | inactive | inactive | inactive |
| CCCCCCCCc1ccc(NC(=S)n2[nH]c(N)cc2=O)cc1 | Active | Active | Active | Active | Active | Active | Active | Active | Active | Active | Active | Active | Active |
| Nc1cc(=O)n(C(=S)Nc2ccc(C(=O)c3ccccc3)cc2)[nH]1 | inactive | Active | Active | inactive | Active | inactive | inactive | Active | Active | Active | Active | inactive | inactive |
| CCCCCCc1ccc(NC(=S)N2N=C(N)CCC2=O)cc1 | inactive | inactive | inactive | inactive | inactive | inactive | inactive | inactive | inactive | inactive | inactive | inactive | inactive |
| CCc1ccc(NC(=O)n2[nH]c(N)cc2=O)cc1 | inactive | inactive | inactive | inactive | inactive | inactive | inactive | inactive | inactive | inactive | inactive | inactive | inactive |
| CC(=O)c1ccc(NC(=S)n2[nH]c(N)cc2=O)cc1 | Not active; Compound Demonstrated Reduced Activity Compared To Lead Compound 1 | Active | Active | Not active; Compound Demonstrated Reduced Activity Compared To Lead Compound 1 | Not active; Compound Demonstrated Reduced Activity Compared To Lead Compound 1 | Not active; Compound Demonstrated Reduced Activity Compared To Lead Compound 1 | Not active; Compound Demonstrated Reduced Activity Compared To Lead Compound 1 | Not active; Compound Demonstrated Reduced Activity Compared To Lead Compound 1 | Not active; Compound Demonstrated Reduced Activity Compared To Lead Compound 1 | Active | Not active; Compound Demonstrated Reduced Activity Compared To Lead Compound 1 | Not active; Compound Demonstrated Reduced Activity Compared To Lead Compound 1 | Not active; Compound Demonstrated Reduced Activity Compared To Lead Compound 1 |
| Nc1cc(=O)n(C(=S)Nc2ccc(OC3CCCCC3)cc2)[nH]1 | Active | Active | Active | Active | Active | Active | Active | Active | Active | Active | Active | Active | Active |
| CCc1ccc(NC(=S)n2[nH]c(N)cc2=O)cc1 | Active | Active | Active | Active | Active | Active | Active | Active | Active | Active | Active | Active | Active |
| Nc1cc(=O)n(C(=S)Nc2cccnc2)[nH]1 | inactive | Not active; Decrease In Activity Observed | Not active; Decrease In Activity Observed | inactive | Not active; Decrease In Activity Observed | inactive | inactive | Not active; Decrease In Activity Observed | Not active; Decrease In Activity Observed | Not active; Decrease In Activity Observed | Not active; Decrease In Activity Observed | inactive | inactive |
| CCCCCCc1ccc(NC(=S)n2[nH]c(N)cc2=O)cc1 | Active | Active | Active | Active | Active | Active | Active | Active | Active | Active | Active | Active | Active |
| CNC(=O)c1ccc(NC(=S)n2[nH]c(N)cc2=O)cc1 | Not active; Compound Demonstrated Reduced Activity Compared To Lead Compound 1 | Active | Active | Not active; Compound Demonstrated Reduced Activity Compared To Lead Compound 1 | Not active; Compound Demonstrated Reduced Activity Compared To Lead Compound 1 | Not active; Compound Demonstrated Reduced Activity Compared To Lead Compound 1 | Not active; Compound Demonstrated Reduced Activity Compared To Lead Compound 1 | Not active; Compound Demonstrated Reduced Activity Compared To Lead Compound 1 | Not active; Compound Demonstrated Reduced Activity Compared To Lead Compound 1 | Active | Not active; Compound Demonstrated Reduced Activity Compared To Lead Compound 1 | Not active; Compound Demonstrated Reduced Activity Compared To Lead Compound 1 | Not active; Compound Demonstrated Reduced Activity Compared To Lead Compound 1 |
